Reference: patent US10703746B2, “Mutant IDH1 inhibitors useful for treating cancer” (THE UNITED STATES OF AMERICA, AS REPRESENTED BY THE …, priority 2014, dated 2020)

Legend:
IDH1 R132H = IDH1 R132H (Homo sapiens, UniProt O75874, R132H); test: IDH1 R132H enzymatic assay (NADPH depletion coupled to diaphorase/resazurin); assay type: biochemical
IDH1 R132C = IDH1 R132C (Homo sapiens, UniProt O75874, R132C); test: IDH1 R132C enzymatic assay (NADPH depletion coupled to diaphorase/resazurin); assay type: biochemical
IDH1 R132C, sequence (O75874 whole entry R132C): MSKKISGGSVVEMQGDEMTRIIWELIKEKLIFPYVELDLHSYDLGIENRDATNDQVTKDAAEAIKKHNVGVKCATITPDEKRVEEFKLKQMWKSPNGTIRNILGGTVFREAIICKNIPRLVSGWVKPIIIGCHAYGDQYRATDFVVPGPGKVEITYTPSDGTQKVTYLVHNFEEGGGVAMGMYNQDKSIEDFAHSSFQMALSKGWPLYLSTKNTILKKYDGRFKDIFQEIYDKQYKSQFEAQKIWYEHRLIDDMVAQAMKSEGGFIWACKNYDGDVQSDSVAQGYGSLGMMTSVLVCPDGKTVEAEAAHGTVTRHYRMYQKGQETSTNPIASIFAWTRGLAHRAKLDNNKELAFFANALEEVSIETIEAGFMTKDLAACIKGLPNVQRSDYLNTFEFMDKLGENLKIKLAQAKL
How it was run: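 NADPH depletion, read via diaphorase/resazurin coupling, after adding substrate at 0.6 mM α-KG and 0.012 mM NADPH. Beforehand, 0.00032 mg/mL enzyme sat with compound 30 min at room temperature in pH 6.5 potassium phosphate buffer with MgCl2, glycerol and BSA.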

[1] = IDH1 R132H enzymatic inhibition, IC50 class
[2] = IDH1 R132C enzymatic inhibition, IC50 class
[3] = enzymatic inhibition, IDH1 R132H
[4] = enzymatic inhibition, IDH1 R132C

IDH1 R132H, sequence (O75874 whole entry R132H): as the sequence (O75874 whole entry R132C) above, with C132H counted along it

SMILES | IC50 (IDH1 R132H; [1]) | IC50 (IDH1 R132C; [2]) | IC50 (IDH1 R132H; [3]) | IC50 (IDH1 R132C; [4])
CCOc1ccc(Cl)cc1-n1c(C=C(C)C)c(C(=O)N2CCNCC2)cc(-c2nc(-c3ccc(C(F)(F)F)cc3)cs2)c1=O [Compound 665] | < 0.3 µM | < 0.3 µM |  | 
CCc1cccc(CC)c1-n1c2c(cc(-c3nc(-c4ccc(Cl)cc4)cs3)c1=O)C(=O)OC2 [Compound 194] | > 20 µM | 5 to 20 µM |  | 
CCc1cccc(CC)c1-n1c(CC(C)C)c(C(=O)N2CCNCC2)cc(-c2nc(-c3ccc(Cl)cc3)c(C3CC3)s2)c1=O [Compound 385] | 0.3 to 1 µM | < 0.3 µM |  | 
Cc1c(CO)cccc1-n1c2c(cc(-c3nc(-c4ccc(Cl)nc4)cs3)c1=O)C(=O)CCC2 [Compound 486] |  |  | 5 to 20 µM | 5 to 20 µM
CCc1cccc(CC)c1-n1c2c(cc(-c3nc(-c4ccc(OC)cc4)cs3)c1=O)C(=O)CC(C)(C)C2 [Compound 183] | 0.3 to 1 µM | 0.3 to 1 µM |  | 
CCc1ccc(N2CCN(C)CC2)c(CC)c1-n1c2c(cc(-c3nc(-c4ccc(Cl)cc4)cs3)c1=O)C(=O)CC(C)(C)C2 [Compound 406] |  |  | 5 to 20 µM | 5 to 20 µM
CCOc1ccc(OCC)c(-n2c3c(cc(-c4nc(-c5ccc(Cl)cc5)cs4)c2=O)C(=O)CC(C)(C)C3)c1 [Compound 828] | 0.3 to 1 µM | < 0.3 µM |  | 
CCc1cccc(CC)c1-n1c(CC(C)C)c(C(=O)N2CCNCC2)cc(-c2nc(-c3ccc(Cl)c(F)c3)c(C)s2)c1=O [Compound 608] |  |  | < 0.3 µM | < 0.3 µM
CCOc1ccc(Cl)c(-n2c(C=C(C)C)c(C(=O)N3CCNCC3)cc(-c3nc(-c4ccc(Cl)cc4)cs3)c2=O)c1 [Compound 354] | < 0.3 µM | < 0.3 µM |  | 
CCc1cccc(CC)c1-n1c(C=C(C)C)c(C(=O)N2CCNCC2)cc(-c2nc(-c3ccc(C(F)(F)F)cc3)cs2)c1=O [Compound 581, 1-(2,6-diethylphenyl)-6-(2-methylprop-1-en-1-yl)-5-(piperazine-1-carbonyl)-3-(4-(4-(trifluoromethyl)phenyl)thiazol-2-yl)pyridin-2(1H)-one] |  |  | < 0.3 µM | < 0.3 µM
CCc1cccc(CC)c1-n1c(C2CCCCC2)c(C(=O)N2CCNCC2)cc(-c2nc(-c3ccc(Cl)cc3)cs2)c1=O [Compound 549] |  |  | 1 to 5 µM | 0.3 to 1 µM
CCc1ncc(F)cc1-n1c(C=C(C)C)c(C(=O)N2CCNCC2)cc(-c2nc(-c3ccc(C(F)(F)F)cc3)cs2)c1=O [Compound 328] | < 0.3 µM | < 0.3 µM |  | 
CN1CCN(Cc2cccc(-n3c4c(cc(-c5nc(-c6ccc(Cl)cc6)cs5)c3=O)C(=O)CCC4)c2)CC1 [Compound 570] |  |  | > 20 µM | > 20 µM
CCc1cccc(CC)c1-n1c(C=C(C)C)c(C(=O)N2CCNCC2C(=O)O)cc(-c2nc(-c3ccc(Cl)cc3)cs2)c1=O (stereo not shown) [Compound 410] |  |  | < 0.3 µM | < 0.3 µM
Cc1ccc(-n2c3c(cc(-c4nc(-c5ccc(Cl)cc5)cs4)c2=O)C(=O)CCC3)c(C)c1 [Compound 450] |  |  | > 20 µM | > 20 µM
CC(C)=Cc1c(C(=O)N2CCNCC2)cc(-c2nc(-c3ccc(Cl)cc3)cs2)c(=O)n1-c1cc(F)cnc1OC(C)C [Compound 316] | < 0.3 µM | < 0.3 µM |  | 
CCc1cccc(CC)c1-n1c(CC2CCNCC2)c(C(=O)N2CCNCC2)cc(-c2nc(-c3ccc(Cl)cc3)cs2)c1=O [Compound 615] |  |  | > 20 µM | > 20 µM
CCOc1ncc(Cl)cc1-n1c(C=C(C)C)c(C(=O)N2CCNCC2)cc(-c2nc(-c3ccc(Cl)cc3)cs2)c1=O [Compound 575] |  |  | < 0.3 µM | < 0.3 µM
CCc1cccc(CC)c1-n1c(C)c(C(=O)N2CCNCC2)c(O)c(C(=O)Nc2nc(-c3ccc(Cl)cc3)cs2)c1=O [Compound 400] | > 20 µM | > 20 µM |  | 
CC1(C)CC(=O)c2cc(-c3nc(-c4ccc(Cl)cc4)cs3)c(=O)n(-c3sccc3C(N)=O)c2C1 [Compound 369] | 5 to 20 µM | 5 to 20 µM |  | 
CC(C)=Cc1c(C(=O)N2CCNCC2)cc(-c2nc(-c3ccc(Cl)cc3)cs2)c(=O)n1-c1ccccc1Cl [Compound 449] |  |  | < 0.3 µM | < 0.3 µM
CCc1cccc(CC)c1-n1c(C)c(C(=O)NCCCO)cc(-c2nc(-c3ccc(Cl)cc3)cs2)c1=O [Compound 262] | 1 to 5 µM | 0.3 to 1 µM |  | 
COC(=O)c1ccccc1-n1c2c(cc(-c3nc(-c4ccc(Cl)cc4)cs3)c1=O)C(=O)CC(C)(C)C2 [Compound 254] | 0.3 to 1 µM | 0.3 to 1 µM |  | 
CC1(C)CC(=O)c2cc(-c3nc(-c4ccc(Cl)cc4)cs3)c(=O)n(-c3ccccc3OCc3ccccc3)c2C1 [Compound 1] | > 20 µM | 0.3 to 1 µM |  | 
COc1ccc(N)cc1-n1c2c(cc(-c3nc(-c4ccc(Cl)cc4)cs3)c1=O)C(=O)CC(C)(C)C2 [Compound 122] | 1 to 5 µM | 0.3 to 1 µM |  | 
CCc1cccc(CC)c1-n1c(CC(C)C)c(C(=O)N2CCNCC2)cc(-c2nc(-c3ccc(Cl)c(C)c3)c(C)s2)c1=O [Compound 624] | 0.3 to 1 µM | < 0.3 µM |  | 
